How the values were obtained:
Assay in all cases: biochemical
Type in all cases: in vitro ADME
CYP2C9 = CYP2C9 (Homo sapiens, UniProt P11712)
Description: (§1) Inhibition of CYP1A2, CYP2C9, CYP2C19, CYP2D6 and CYP3A4 catalytic activity by (R)-3-((E)-2-(pyrrolidin-3-yl)vinyl)-5-(tetrahydropyran-4-yloxy)pyridine or a slat thereof was assessed using a fluorogenic CYP assay. Probe substrates which fluoresce upon CYP catalyzed oxidation were used to evaluate the degree of inhibition of the test substrate. A single concentration of each probe substrate (at approximately the apparent Km value) and two different concentrations of (R)-3-((E)-2-(pyrrolidin-3-yl)vinyl)-5-(tetrahydropyran-4-yloxy)pyridine hemigalactarate (2 and 20 μM) were tested in duplicate. Fluorescence intensity at selected wavelengths was used as a measure of enzyme activity. Decreased fluorescence in the presence of (R)-3-((E)-2-(pyrrolidin-3-yl)vinyl)-5-(tetrahydropyran-4-yloxy)pyridine or a sat thereof was an indication of inhibition. […] Duplicate samples were run alongside the positive and negative controls. Incubation of test samples was performed at 37° C. Experimental parameters are outlined in Table 2.

CYP2D6 = CYP2D6 (Homo sapiens, UniProt P10635)
Sequence of CYP2D6 (P10635 whole entry): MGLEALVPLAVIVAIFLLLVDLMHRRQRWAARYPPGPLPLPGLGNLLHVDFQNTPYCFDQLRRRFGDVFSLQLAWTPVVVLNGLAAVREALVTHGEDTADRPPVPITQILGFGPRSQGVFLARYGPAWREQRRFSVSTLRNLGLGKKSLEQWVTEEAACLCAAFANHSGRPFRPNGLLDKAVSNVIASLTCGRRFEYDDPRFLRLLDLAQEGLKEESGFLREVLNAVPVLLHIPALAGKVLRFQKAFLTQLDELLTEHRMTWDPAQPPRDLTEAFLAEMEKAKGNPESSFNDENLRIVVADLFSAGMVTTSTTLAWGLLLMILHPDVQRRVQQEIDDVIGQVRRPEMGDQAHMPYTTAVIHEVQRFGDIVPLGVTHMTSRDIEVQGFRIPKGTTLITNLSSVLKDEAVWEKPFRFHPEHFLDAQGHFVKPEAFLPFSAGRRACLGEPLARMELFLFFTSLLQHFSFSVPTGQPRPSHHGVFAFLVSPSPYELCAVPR
Description: as §1

CYP1A2 = CYP1A2 (Homo sapiens, UniProt P05177)
Sequence of CYP1A2 (P05177 whole entry): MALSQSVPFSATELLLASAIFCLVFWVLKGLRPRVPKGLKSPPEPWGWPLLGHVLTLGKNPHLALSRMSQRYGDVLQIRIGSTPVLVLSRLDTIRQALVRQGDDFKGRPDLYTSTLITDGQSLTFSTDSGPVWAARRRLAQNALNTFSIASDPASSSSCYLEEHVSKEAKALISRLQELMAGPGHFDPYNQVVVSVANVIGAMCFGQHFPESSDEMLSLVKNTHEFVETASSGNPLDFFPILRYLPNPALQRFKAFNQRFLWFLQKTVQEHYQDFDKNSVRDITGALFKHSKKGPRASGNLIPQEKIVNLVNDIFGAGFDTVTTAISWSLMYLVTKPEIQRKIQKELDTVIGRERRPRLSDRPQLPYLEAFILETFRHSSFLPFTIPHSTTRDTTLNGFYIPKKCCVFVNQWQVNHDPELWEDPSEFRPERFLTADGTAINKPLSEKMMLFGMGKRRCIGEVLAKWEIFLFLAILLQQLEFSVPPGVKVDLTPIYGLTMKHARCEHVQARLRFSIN
Description: as §1

CYP2C19 = CYP2C19 (Homo sapiens, UniProt P33261)
Sequence of CYP2C19 (P33261 whole entry): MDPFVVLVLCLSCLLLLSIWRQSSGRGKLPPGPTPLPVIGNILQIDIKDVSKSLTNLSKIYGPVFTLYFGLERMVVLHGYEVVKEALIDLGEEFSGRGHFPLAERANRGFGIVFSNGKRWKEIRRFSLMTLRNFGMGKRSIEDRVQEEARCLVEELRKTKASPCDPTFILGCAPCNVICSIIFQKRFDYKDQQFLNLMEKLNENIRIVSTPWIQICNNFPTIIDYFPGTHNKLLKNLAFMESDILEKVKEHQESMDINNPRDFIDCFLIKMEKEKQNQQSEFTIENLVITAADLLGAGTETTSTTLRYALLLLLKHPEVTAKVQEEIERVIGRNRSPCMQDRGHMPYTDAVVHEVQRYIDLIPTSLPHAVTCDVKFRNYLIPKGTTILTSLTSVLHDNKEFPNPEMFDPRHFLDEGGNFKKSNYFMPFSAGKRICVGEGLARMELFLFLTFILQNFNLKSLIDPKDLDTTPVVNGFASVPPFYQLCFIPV
Description: as §1

CYP3A4 = CYP3A4 (Homo sapiens, UniProt P08684)
Sequence of CYP3A4 (P08684 whole entry): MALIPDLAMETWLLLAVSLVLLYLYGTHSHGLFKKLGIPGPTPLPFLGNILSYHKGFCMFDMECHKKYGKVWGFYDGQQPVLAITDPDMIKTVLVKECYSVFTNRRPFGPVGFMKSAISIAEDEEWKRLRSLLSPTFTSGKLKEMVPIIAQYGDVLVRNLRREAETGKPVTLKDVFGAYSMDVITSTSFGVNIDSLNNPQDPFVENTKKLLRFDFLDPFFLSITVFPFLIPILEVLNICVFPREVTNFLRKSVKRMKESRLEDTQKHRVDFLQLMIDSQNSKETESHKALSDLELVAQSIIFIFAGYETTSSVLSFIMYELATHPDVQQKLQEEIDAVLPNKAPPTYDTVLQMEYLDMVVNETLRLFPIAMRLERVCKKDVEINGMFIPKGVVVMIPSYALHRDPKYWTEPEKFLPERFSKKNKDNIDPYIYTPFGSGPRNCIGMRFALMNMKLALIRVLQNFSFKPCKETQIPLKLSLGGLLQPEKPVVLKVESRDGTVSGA
Description: as §1

Measured: IC50

Sequence of CYP2C9 (P11712 whole entry): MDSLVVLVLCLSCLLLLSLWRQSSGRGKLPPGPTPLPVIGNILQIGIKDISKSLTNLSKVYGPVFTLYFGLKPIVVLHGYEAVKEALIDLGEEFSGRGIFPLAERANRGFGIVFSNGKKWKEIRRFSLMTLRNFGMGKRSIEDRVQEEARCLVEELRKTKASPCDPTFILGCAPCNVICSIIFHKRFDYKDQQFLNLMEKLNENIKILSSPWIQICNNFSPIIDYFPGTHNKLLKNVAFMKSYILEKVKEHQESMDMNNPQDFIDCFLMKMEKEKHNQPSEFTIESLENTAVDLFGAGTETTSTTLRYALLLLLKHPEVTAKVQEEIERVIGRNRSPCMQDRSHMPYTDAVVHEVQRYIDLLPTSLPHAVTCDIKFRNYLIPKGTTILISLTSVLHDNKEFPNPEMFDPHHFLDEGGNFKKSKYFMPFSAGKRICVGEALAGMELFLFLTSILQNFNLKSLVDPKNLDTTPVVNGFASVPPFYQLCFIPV

C(=C\[C@H]1CCNC1)/c1cncc(OC2CCOCC2)c1 [Compound A, (R)-3-((E)-2-(pyrrolidin-3-yl)vinyl)-5-(tetrahydropyran-4-yloxy)pyridine]
> 20 µM: all assays above

From patent US8153821B2, “Compounds” (priority 2008, dated 2012)
